# PubChem BioAssay (NCI)
# Where “and” joins values, the source holds several entries; their conditions need not be identical. Equal entries are not always repeated.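 How tested: cells in 96-well plates exposed to compound for 48 hours at five concentrations. The concentration for 50% growth inhibition is given as GI50. Definition used: TGI = concentration required for complete inhibition of growth.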
# Tests used:
# Test in all cases: growth of human tumour cells (NCI), 48 h
# [1] = tested on: 786-0 renal
# [2] = tested on: A498 renal
# [3] = tested on: A549 NSCLC
# [4] = tested on: ACHN renal
# [5] = tested on: BT-549 breast
# [6] = tested on: CAKI-1 renal
# [7] = tested on: CCRF-CEM leukemia
# [8] = tested on: COLO 205 colon
# [9] = tested on: DU-145 prostate
# [10] = tested on: EKVX NSCLC
# [11] = tested on: HCC-2998 colon
# [12] = tested on: HCT-116 colon
# [13] = tested on: HCT-15 colon
# [14] = tested on: HL-60(TB) leukemia
# [15] = tested on: HOP-62 NSCLC
# [16] = tested on: HOP-92 NSCLC
# [17] = tested on: HT29 colon
# [18] = tested on: IGROV1 ovarian
# [19] = tested on: K-562 leukemia
# [20] = tested on: KM12 colon
# [21] = tested on: LOX IMVI melanoma
# [22] = tested on: M14 melanoma
# [23] = tested on: MALME-3M melanoma
# [24] = tested on: MCF7 breast
# [25] = tested on: MDA-MB-231 breast
# [26] = tested on: MDA-MB-435
# [27] = tested on: MDA-N
# [28] = tested on: MOLT-4 leukemia
# [29] = tested on: NCI-H226 lung
# [30] = tested on: NCI-H23 lung
# [31] = tested on: NCI-H460 lung
# [32] = tested on: NCI-H522 lung
# [33] = tested on: NCI/ADR-RES ovarian
# [34] = tested on: OVCAR-3 ovarian
# [35] = tested on: OVCAR-4 ovarian
# [36] = tested on: OVCAR-5 ovarian
# [37] = tested on: OVCAR-8 ovarian
# [38] = tested on: PC-3 prostate
# [39] = tested on: RPMI-8226 leukemia
# [40] = tested on: RXF 393 renal
# [41] = tested on: SF-268 CNS
# [42] = tested on: SF-295 CNS
# [43] = tested on: SF-539 CNS
# [44] = tested on: SK-MEL-2 melanoma
# [45] = tested on: SK-MEL-28 melanoma
# [46] = tested on: SK-MEL-5 melanoma
# [47] = tested on: SK-OV-3 ovarian
# [48] = tested on: SN12C renal
# [49] = tested on: SNB-19 CNS
# [50] = tested on: SNB-75 CNS
# [51] = tested on: SR leukemia
# [52] = tested on: SW-620 colon
# [53] = tested on: T-47D breast
# [54] = tested on: TK-10 renal
# [55] = tested on: U251 CNS
# [56] = tested on: UACC-257 melanoma
# [57] = tested on: UACC-62 melanoma
# [58] = tested on: UO-31 renal
compound,measurement,setting,value
COC(=O)c1ccc2c(c1)CCN2C(=O)c1cc2c(cc1Br)OCO2,TGI,[1],27.4 µM and > 100 µM
same,GI50,[2],2.62 µM
same,TGI,[2],30.8 µM and > 100 µM
same,GI50,[3],3.27 µM
same,TGI,[3],50 µM and > 100 µM
same,GI50,[4],6.56 µM
same,TGI,[4],49.3 µM and > 100 µM
same,GI50,[5],0.424 µM
same,TGI,[5],45.5 µM and 5.57 µM
same,GI50,[6],0.953 µM
same,TGI,[6],50 µM and > 100 µM
same,GI50,[7],0.742 µM
same,TGI,[7],50 µM and > 100 µM
same,GI50,[8],1.13 µM
same,TGI,[8],2.62 µM and 3.9 µM
same,GI50,[9],3.02 µM
same,TGI,[9],26.9 µM and > 100 µM
same,GI50,[10],3.77 µM
same,TGI,[10],50 µM and > 100 µM
same,GI50,[11],21.2 µM
same,GI50,[12],0.677 µM
same,GI50,[13],0.378 µM
same,TGI,[13],50 µM and 23.5 µM
same,GI50,[14],0.31 µM
same,TGI,[14],10.2 µM and 17.1 µM
same,TGI,[15],50 µM and > 100 µM
same,GI50,[16],0.432 µM
same,TGI,[16],50 µM and 40.3 µM
same,GI50,[17],0.507 µM
same,TGI,[17],50 µM and 12.1 µM
same,GI50,[18],0.455 µM
same,TGI,[18],50 µM and > 100 µM
same,GI50,[19],0.824 µM
same,TGI,[19],50 µM and > 100 µM
same,GI50,[20],0.532 µM
same,TGI,[20],50 µM and > 100 µM
same,GI50,[21],0.936 µM
same,TGI,[21],50 µM and 94.7 µM
same,GI50,[22],0.652 µM
same,TGI,[22],6.9 µM and 40.4 µM
same,TGI,[23],50 µM
same,GI50,[24],0.567 µM
same,TGI,[24],50 µM and > 100 µM
same,GI50,[25],2 µM
same,TGI,[25],50 µM and > 100 µM
same,TGI,[26],0.994 µM
same,GI50,[27],0.252 µM
same,TGI,[27],0.244 µM and 0.841 µM
same,GI50,[28],0.896 µM
same,TGI,[28],12.1 µM and > 100 µM
same,TGI,[29],4.44 µM
same,GI50,[30],0.746 µM
same,TGI,[30],50 µM and 6.16 µM
same,TGI,[31],50 µM
same,GI50,[32],0.0801 µM
same,TGI,[32],0.4 µM and 0.29 µM
same,GI50,[33],0.262 µM
same,TGI,[33],4.79 µM and 0.693 µM
same,GI50,[34],0.363 µM
same,TGI,[34],3.99 µM and 1.43 µM
same,GI50,[35],4.88 µM
same,TGI,[35],50 µM and > 100 µM
same,TGI,[36],> 50 µM
same,GI50,[37],1.52 µM
same,TGI,[37],50 µM and 14.7 µM
same,TGI,[38],5.52 µM and 20.6 µM
same,GI50,[39],1.15 µM
same,TGI,[40],4.72 µM
same,TGI,[41],50 µM
same,GI50,[42],0.683 µM
same,TGI,[42],50 µM and > 100 µM
same,GI50,[43],2.93 µM
same,TGI,[44],5.7 µM and 36.4 µM
same,GI50,[45],19.2 µM
same,TGI,[45],50 µM and > 100 µM
same,GI50,[46],0.581 µM
same,TGI,[46],5.5 µM and 14.1 µM
same,TGI,[47],> 100 µM
same,GI50,[48],3.21 µM
same,TGI,[48],48.3 µM and > 100 µM
same,GI50,[49],1.31 µM
same,TGI,[49],12.8 µM and > 100 µM
same,TGI,[50],50 µM
same,GI50,[51],0.366 µM
same,TGI,[51],50 µM and > 100 µM
same,TGI,[52],50 µM and > 100 µM
same,GI50,[53],0.982 µM
same,TGI,[53],50 µM and 51.9 µM
same,GI50,[54],27.1 µM
same,TGI,[54],37.6 µM and > 100 µM
same,GI50,[55],0.512 µM
same,TGI,[55],5.12 µM and 20.6 µM
same,GI50,[56],16.6 µM
same,TGI,[56],18.8 µM and 75.1 µM
same,GI50,[57],0.995 µM
same,TGI,[57],50 µM and > 100 µM
same,GI50,[58],0.817 µM
same,TGI,[58],24.8 µM and 72.1 µM
